In article PMC4138103 (PLoS ONE, 2014):
Where two headings read alike, the source gives them in different places.

Columns and labels:
[1] = Margin of exposure calculations; parameters: species or system human; details: for MoE, Liver p53 / MoE, Spontanous locomotor activity: females; for MoE, Liver retinol / MoE, Serum chlolesterol / MoE, Serum thyroxine / MoE, Serum triglycerids: males
Text: They include values from the WHO mother's milk survey in 2001–2002 [1], [2], adipose tissue from the Finnish general population in 1997–1999 [83] and, plasma from the Baltic Sea fisherman cohort in 1997–1999 [41] and placenta from a Danish–Finnish joint prospective cohort in 1997–2001 [40]. WHO has established uncertainty factors (UF) for estimating tolerable intake levels of environmental chemicals. As rat and human tissue concentration data are used no interspecies toxicokinetic UF is needed. A toxicodynamic factor of 2.5 is applied to cover the interspecies variability and a factor of 10 to cover the inter-individual variability in humans. Thus, the UF of 25 is considered adequate for human health endpoints of NDL-PCBs.

Sprague-Dawley rats [2] = experiment: Sperm analyses, cauda epididymis; format: in vivo, Rattus norvegicus; details: males
Experimental: Frozen right cauda epididymides were homogenized for 2 min using Ultra Turrax homogenizer (model T25 basic, IKA-WERKE GmbH, Staufen, Germany) in 20 ml 0.9% saline containing 0.05% Triton X-100 and 0.01% thiomersal. Homogenates were diluted to about 1×10^6 sperms/ml, and counts from 4 hemocytometer chambers were counted and averaged.

[3] = cited from earlier work
Sprague-Dawley rats [4] = tested on: Sprague-Dawley rats; parameters: method as in Roos et al., 2011; details: group mean, ref Roos et al., 2011, cited from earlier work
[5] = Worst case: the most exposed fisherman
[6] = human cohort Baltic Sea fishermen
[7] = human cohort General population (Finland)
[8] = human cohort Placenta (Denmark)
[9] = human cohort Placenta (Finland)

Clc1cc(Cl)c(-c2cc(Cl)c(Cl)c(Cl)c2Cl)cc1Cl [PCB 180, 2,2′,3′,4,4′,5,5′-heptachlorobiphenyl]
MoE, Liver p53 [1, 5]: 25 | MoE, Spontanous locomotor activity [1, 5]: 0.438 | MoE, Liver p53 [1, 6]: 65.2 | MoE, Spontanous locomotor activity [1, 6]: 1.14 | MoE, Liver p53 [1, 7]: 316 | MoE, Spontanous locomotor activity [1, 7]: 5.53 | MoE, Liver p53 ([1]; human cohort Mother's milk): 655 | MoE, Spontanous locomotor activity ([1]; human cohort Mother's milk): 11.5 | MoE, Liver p53 [1, 8]: 3109 | MoE, Spontanous locomotor activity [1, 8]: 54.4 | MoE, Liver p53 [1, 9]: 5396 | MoE, Spontanous locomotor activity [1, 9]: 94.4 | MoE, Liver retinol [1, 5]: 15.7 | MoE, Serum chlolesterol [1, 5]: 76.2 | MoE, Serum thyroxine [1, 5]: 97.5 | MoE, Serum triglycerids [1, 5]: 6.05 | MoE, Liver retinol [1, 6]: 40.9 | MoE, Serum chlolesterol [1, 6]: 199 | MoE, Serum thyroxine [1, 6]: 254 | MoE, Serum triglycerids [1, 6]: 15.8 | MoE, Liver retinol [1, 7]: 198 | MoE, Serum chlolesterol [1, 7]: 963 | MoE, Serum thyroxine [1, 7]: 1233 | MoE, Serum triglycerids [1, 7]: 76.5 | MoE, Liver retinol ([1]; human cohort Mother's milk): 410 | MoE, Serum chlolesterol ([1]; human cohort Mother's milk): 1996 | MoE, Serum thyroxine ([1]; human cohort Mother's milk): 2555 | MoE, Serum triglycerids ([1]; human cohort Mother's milk): 159 | MoE, Liver retinol [1, 8]: 1948 | MoE, Serum chlolesterol [1, 8]: 9472 | MoE, Serum thyroxine [1, 8]: 12124 | MoE, Serum triglycerids [1, 8]: 752 | MoE, Liver retinol [1, 9]: 3381 | MoE, Serum chlolesterol [1, 9]: 16439 | MoE, Serum thyroxine [1, 9]: 21043 | MoE, Serum triglycerids [1, 9]: 1306 | Cauda epididymal sperm density (Sprague-Dawley rats [2]; 1700 mg/kg bw vs control): not affected | Sperm density (Sprague-Dawley rats [2]; total dose 1700 mg/kg bw, cauda epididymis, group mean): 691 106/g tissue | Sperm count (Sprague-Dawley rats [2]; total dose 1700 mg/kg bw, group mean): 94.0 106/cauda epididymis | Elimination half-life ([3]; adult humans, estimated): 11.5 years | Elimination half-life ([3]; early adolescent children): 9.8 years | Body weight (Sprague-Dawley rats [4]; females, total dose 3 mg/kg bw): 215 g | Body weight (Sprague-Dawley rats [4]; females, total dose 10 mg/kg bw): 210 g | Body weight (Sprague-Dawley rats [4]; females, total dose 30 mg/kg bw): 213 g | Body weight (Sprague-Dawley rats [4]; females, total dose 100 mg/kg bw): 211 g | Body weight (Sprague-Dawley rats [4]; females, total dose 300 mg/kg bw): 212 g | Body weight (Sprague-Dawley rats [4]; females, total dose 1000 mg/kg bw): 213 g | Body weight (Sprague-Dawley rats [4]; females, total dose 1700 mg/kg bw): 208 g | Body weight (Sprague-Dawley rats [4]; males, total dose 3 mg/kg bw): 306 g | Body weight (Sprague-Dawley rats [4]; males, total dose 10 mg/kg bw): 321 g | Body weight (Sprague-Dawley rats [4]; males, total dose 30 mg/kg bw): 324 g | Body weight (Sprague-Dawley rats [4]; males, total dose 100 mg/kg bw): 322 g | Body weight (Sprague-Dawley rats [4]; males, total dose 300 mg/kg bw): 325 g | Body weight (Sprague-Dawley rats [4]; males, total dose 1000 mg/kg bw): 315 g | Body weight (Sprague-Dawley rats [4]; males, total dose 1700 mg/kg bw): 310 g
